In ChEMBL document CHEMBL1201862, “PubChem BioAssay data set” (2004):
Active and inactive are the calls of the source.

How the values were obtained:
Cytochrome P450 2D6 = Cytochrome P450 2D6 (Homo sapiens, UniProt P10635);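 further: CYP2D6 member of a cytochrome P450 panel assay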
Cytochrome P450 2C9 = Cytochrome P450 2C9 (Homo sapiens, UniProt P11712)
Vero = assay: cells; type: functional; settings: Chlorocebus sabaeus
[1] = target: T1, Heat shock factor protein 1 (Mus musculus, UniProt P38532); assay: enhancement of HSF1-driven luciferase signal – cell-based, NIH3T3, luminescence, dose retest, confirmation (AID 435004); type: functional;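 further: stress induced by proteasome inhibitor MG132 added 30 min after compound; luciferase reporter driven by HSF1 response element in NIH3T3 cells; actives raise luminescence as potentiators of the MG132 stress response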
T1 sequence (P38532 whole entry): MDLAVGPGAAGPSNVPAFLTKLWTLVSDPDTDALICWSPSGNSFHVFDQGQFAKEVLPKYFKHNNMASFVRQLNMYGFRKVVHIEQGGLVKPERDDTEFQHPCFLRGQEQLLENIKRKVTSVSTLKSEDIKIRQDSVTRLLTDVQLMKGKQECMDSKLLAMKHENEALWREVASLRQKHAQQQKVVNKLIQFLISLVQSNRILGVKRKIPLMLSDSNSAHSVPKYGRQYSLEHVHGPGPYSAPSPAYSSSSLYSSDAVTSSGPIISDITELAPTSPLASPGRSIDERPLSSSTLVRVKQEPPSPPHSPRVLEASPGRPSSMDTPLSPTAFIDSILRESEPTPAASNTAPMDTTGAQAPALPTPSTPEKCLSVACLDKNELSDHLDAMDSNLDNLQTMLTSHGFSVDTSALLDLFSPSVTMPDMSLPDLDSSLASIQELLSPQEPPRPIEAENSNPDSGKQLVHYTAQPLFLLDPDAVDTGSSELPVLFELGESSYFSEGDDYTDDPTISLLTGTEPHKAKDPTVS

[2] = Luminescence Cell-Based Dose Retest to Confirm Inhibitors of Cancer Stem Cells. [Related pubchem assays (depositor defined):AID2717, AID2721]; type: functional, Homo sapiens; settings: Homo sapiens
[3] = viability of uninfected HEp-2 cells – cell-based, HTS, cytotoxicity control for RSV inhibitor project, dose response (AID 2410); type: functional; settings: human respiratory syncytial virus
Leucine aminopeptidase = target: T2, Leucine aminopeptidase (Plasmodium falciparum 3D7, UniProt Q8IL11); assay: P. falciparum M17LAP inhibitors, primary screen, biochemical, fluorogenic H-Leu-NHMec substrate, 1536-well (AID 1619); type: functional
T2 sequence (Q8IL11 whole entry): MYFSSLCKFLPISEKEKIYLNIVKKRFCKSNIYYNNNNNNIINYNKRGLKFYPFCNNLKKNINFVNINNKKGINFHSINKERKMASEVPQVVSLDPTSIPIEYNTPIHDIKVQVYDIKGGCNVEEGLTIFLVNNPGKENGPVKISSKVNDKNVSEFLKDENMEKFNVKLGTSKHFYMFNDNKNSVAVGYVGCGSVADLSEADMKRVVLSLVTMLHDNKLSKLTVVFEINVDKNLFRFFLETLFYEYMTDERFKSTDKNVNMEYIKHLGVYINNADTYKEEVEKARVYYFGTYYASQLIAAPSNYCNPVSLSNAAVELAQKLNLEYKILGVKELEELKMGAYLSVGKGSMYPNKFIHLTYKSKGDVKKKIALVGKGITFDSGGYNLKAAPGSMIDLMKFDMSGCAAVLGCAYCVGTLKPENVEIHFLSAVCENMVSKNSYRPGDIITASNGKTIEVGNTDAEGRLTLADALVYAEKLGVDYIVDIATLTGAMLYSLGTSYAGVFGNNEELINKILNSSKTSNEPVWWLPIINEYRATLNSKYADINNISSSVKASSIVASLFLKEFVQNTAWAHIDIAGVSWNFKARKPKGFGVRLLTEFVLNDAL

Cytochrome P450 1A2 = target: T3, Cytochrome P450 1A2 (Homo sapiens, UniProt P05177);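 further: PubChem cytochrome P450 panel assay, CYP1A2 panel member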
T3 sequence (P05177 whole entry): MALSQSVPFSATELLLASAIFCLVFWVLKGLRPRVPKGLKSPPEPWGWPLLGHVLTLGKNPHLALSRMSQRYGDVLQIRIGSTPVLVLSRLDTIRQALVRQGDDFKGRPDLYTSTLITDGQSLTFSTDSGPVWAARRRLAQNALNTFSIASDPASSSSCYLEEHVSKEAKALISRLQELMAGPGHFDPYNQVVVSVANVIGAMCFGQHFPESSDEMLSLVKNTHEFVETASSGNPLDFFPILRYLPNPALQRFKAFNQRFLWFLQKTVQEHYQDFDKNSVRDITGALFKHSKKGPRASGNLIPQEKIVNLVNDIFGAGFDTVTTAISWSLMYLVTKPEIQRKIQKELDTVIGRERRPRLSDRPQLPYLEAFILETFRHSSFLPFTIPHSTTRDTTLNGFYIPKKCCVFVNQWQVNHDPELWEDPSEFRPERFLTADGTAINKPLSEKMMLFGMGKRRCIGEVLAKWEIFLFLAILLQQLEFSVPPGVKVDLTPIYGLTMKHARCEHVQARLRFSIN

H4 = assay: Luminescence Cell-Based Dose Response HTS to Identify Activators of 5'UTR Stem-Loop Driven Prion Protein mRNA Translation in H4 Neuroglioblastoma Cells. [Related pubchem assays: 1829 (Project Summary), 1814 (Primary HTS)]; type: functional; settings: Homo sapiens
[4] = tested on: Streptococcus sp. 'group A'; assay: Streptococcus pyogenes SK(-)GAS viability under kanamycin – luminescence, BacTiterGlo, confirmation, counter-screen for streptokinase expression inhibitor project, dose response (AID 1900); type: functional, organism-based
Streptococcus = assay: GAS UMAA2166 growth inhibition – luminescence, BacTiterGlo, counter-screen for streptokinase expression inhibitor project, dose response (AID 1915); type: functional, organism-based;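 further: potency for reduction of bacterial viability or growth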
[5] = Luminescence Cell-Based Dose Response HTS to Identify Activators of Luciferase Translation or Activity in H4 […] Cells. [Related pubchem assays: 1829 (Project Summary), 1814 (Primary HTS)]; type: functional
Streptokinase A = target: T4, Streptokinase A (Streptococcus pyogenes serotype M1, UniProt P10520); assay: viability-normalized secreted streptokinase activity reduction – plasminogen activation absorbance, OD405, dose response (AID 1914); type: functional, Streptococcus pyogenes M1 GAS;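 further: secreted streptokinase activity via plasminogen activation per viability signal from cell pellet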
T4 sequence (P10520 whole entry): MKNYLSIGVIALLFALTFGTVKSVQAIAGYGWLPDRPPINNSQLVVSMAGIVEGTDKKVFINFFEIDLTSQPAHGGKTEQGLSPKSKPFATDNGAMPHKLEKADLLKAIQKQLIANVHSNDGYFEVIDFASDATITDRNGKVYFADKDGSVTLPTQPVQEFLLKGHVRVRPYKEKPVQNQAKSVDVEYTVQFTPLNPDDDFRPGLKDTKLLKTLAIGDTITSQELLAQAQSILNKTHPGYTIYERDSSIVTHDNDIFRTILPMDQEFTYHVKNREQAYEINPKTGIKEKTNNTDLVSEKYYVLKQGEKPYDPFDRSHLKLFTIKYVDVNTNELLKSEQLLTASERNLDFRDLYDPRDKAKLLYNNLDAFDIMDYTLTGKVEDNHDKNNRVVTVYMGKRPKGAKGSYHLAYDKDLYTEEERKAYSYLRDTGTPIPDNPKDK

[6] = Luminescence Cell-Based Dose Confirmation HTS to Identify Activators of 5'UTR Stem-Loop Driven Alpha-Synuclein mRNA Translation in H4 Neuroglioblastoma Cells. [Related pubchem assays: 1829 (Project Summary), 1814 (Primary HTS)]; type: functional
[7] = NIH3T3 cell viability loss – ATP luminescence, mouse fibroblasts, counter-screen, dose response (AID 2010); type: functional, cell-based;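 further: cells exposed to compound for about 90 hours before reading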
[8] = Trypanosoma cruzi growth suppression in host cells – NIH3T3 host cells, beta-gal luminescence, confirmation (AID 2044); type: functional, cell-based;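 further: intracellular parasites grown in NIH/3T3 mouse fibroblasts as host cells; luminescent beta-galactosidase reporter signal from transgenic T. cruzi replicating inside host cells; inhibitors lower the luminescence signal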
Cytochrome P450 2C19 = Cytochrome P450 2C19 (Homo sapiens, UniProt P33261); assay: Cytochrome panel assay with activity outcomes. Panel member name: p450-cyp2c19 Compounds with AC50 equal or less than 10 uM are considered active; type: functional; settings: read-out: AC50
Cytochrome P450 3A4 = Cytochrome P450 3A4 (Homo sapiens, UniProt P08684);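 further: CYP3A4 tested as one member of a cytochrome P450 panel screen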
Chain of Cytochrome P450 3A4 (P08684 whole entry): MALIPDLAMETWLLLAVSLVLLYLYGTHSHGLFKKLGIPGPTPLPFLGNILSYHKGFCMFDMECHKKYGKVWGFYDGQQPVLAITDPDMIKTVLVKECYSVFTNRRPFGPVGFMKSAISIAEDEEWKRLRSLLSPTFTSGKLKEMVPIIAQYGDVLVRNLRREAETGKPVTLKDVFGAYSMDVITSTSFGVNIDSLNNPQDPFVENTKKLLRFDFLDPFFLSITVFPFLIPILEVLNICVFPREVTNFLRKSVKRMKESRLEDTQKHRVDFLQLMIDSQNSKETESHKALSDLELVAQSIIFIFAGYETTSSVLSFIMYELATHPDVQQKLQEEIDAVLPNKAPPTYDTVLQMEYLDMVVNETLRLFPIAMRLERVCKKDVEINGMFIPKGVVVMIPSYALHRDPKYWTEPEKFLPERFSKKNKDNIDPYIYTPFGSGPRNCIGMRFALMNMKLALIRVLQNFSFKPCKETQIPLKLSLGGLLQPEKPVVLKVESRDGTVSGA

Chain of Cytochrome P450 2D6 (P10635 whole entry): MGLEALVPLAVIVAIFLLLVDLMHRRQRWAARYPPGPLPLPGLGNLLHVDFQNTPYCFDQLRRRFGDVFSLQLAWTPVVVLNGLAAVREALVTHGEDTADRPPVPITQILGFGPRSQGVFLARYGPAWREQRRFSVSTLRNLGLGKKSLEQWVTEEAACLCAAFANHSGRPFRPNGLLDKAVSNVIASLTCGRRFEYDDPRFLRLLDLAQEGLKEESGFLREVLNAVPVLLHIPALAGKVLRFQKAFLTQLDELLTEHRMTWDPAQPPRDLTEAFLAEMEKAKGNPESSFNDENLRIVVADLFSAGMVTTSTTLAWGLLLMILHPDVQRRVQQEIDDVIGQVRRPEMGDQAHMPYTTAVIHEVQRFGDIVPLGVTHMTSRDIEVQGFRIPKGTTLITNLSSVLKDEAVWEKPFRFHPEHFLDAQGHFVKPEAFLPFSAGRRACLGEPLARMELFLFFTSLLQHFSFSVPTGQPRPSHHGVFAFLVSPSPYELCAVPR
Chain of Cytochrome P450 2C9 (P11712 whole entry): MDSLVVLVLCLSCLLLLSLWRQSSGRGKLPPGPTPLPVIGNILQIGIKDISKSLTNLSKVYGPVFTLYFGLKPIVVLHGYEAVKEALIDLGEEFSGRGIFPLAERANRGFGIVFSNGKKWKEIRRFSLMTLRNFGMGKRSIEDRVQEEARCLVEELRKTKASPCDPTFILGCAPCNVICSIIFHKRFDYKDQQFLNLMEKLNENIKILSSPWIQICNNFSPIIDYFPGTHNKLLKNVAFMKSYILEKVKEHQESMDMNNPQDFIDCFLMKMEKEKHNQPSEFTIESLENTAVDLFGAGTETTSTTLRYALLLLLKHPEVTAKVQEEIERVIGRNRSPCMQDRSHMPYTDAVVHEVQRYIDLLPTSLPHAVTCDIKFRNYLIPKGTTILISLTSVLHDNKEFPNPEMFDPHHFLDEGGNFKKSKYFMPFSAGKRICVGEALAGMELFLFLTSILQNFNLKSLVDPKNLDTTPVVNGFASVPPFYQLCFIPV
Chain of Cytochrome P450 2C19 (P33261 whole entry): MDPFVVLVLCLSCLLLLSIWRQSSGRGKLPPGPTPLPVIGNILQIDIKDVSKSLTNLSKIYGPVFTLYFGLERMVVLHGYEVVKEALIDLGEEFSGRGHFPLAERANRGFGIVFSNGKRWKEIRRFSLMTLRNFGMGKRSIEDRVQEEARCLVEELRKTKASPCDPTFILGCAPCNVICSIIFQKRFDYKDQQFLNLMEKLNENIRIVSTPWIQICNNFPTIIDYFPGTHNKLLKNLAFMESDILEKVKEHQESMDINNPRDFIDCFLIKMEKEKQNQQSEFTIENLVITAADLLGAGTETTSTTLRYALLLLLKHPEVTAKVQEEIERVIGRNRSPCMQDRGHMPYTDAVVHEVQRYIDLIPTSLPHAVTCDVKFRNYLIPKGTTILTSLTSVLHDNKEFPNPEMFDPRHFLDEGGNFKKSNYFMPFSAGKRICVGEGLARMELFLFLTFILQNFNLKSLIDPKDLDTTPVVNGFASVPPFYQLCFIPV

SMILES: CCc1nc(SCC(=O)N2CCCc3ccccc32)c2oc3ccccc3c2n1
- AC50 (Cytochrome P450 2D6): 20 µM (inconclusive)
- AC50 (Cytochrome P450 2C9): 4.47 µM (inconclusive)

SMILES: COc1ccc(C(=O)/C=C/c2ccc(OC)c(Cn3nnc4ccccc43)c2)cc1
- CC50 (Vero): 15.2 µM (active)
- EC50 [1]: 14.1 µM (active)
- AC50 [2]: 6.14 µM (active)
- CC50 [3]: 12.1 µM (active)

SMILES: O=C(NCCN1CCN(Cc2ccccc2)CC1)C1CC(=O)N(C2CCCC2)C1 (centres undefined)
- AC50 (Cytochrome P450 2D6): 14.1 µM (inconclusive)
- AC50 (Cytochrome P450 2C9): 0.398 µM (inconclusive)

SMILES: O=C(COc1ccccc1)NNC(=S)NC(=O)c1ccccc1
- IC50 (Leucine aminopeptidase): 9.22 µM (active)
- CC50 (Vero): > 25 µM (active)

SMILES: O=C(CCCn1c(=S)[nH]c2cc3c(cc2c1=O)OCO3)N1CCN(c2ccccc2)CC1
- AC50 (Cytochrome P450 1A2): 4.47 µM (inconclusive)
- AC50 (Cytochrome P450 2D6): 1.26 µM (inconclusive)
- AC50 (Cytochrome P450 2C9): 0.0891 µM (inconclusive)

SMILES: O=C(Nc1nnc(C2CCCCC2)s1)c1ccc(Br)s1
- EC50 (H4): 81.8 µM (active)
- EC50 [4]: 6.45 µM (active)
- EC50 (Streptococcus): > 150 µM (not active)
- EC50 [5]: 65.3 µM (active)
- EC50 (Streptokinase A): > 150 µM (not active)
- EC50 [6]: 11.6 µM (active)

SMILES: C=C(C(=O)c1ccccc1)C(c1ccccc1)C(C)C(=O)c1ccccc1 (centres undefined)
- CC50 (Vero): 17.8 µM (active)

SMILES: Cc1ccc2[nH]c(C3CCCN(C(S)=Nc4ccccc4C)C3)nc2c1 (centres undefined)
- EC50 [7]: > 60 µM (not active)
- EC50 [8]: 0.443 µM (active)
- AC50 (Cytochrome P450 2C19): 1.41 µM (inconclusive)
- AC50 (Cytochrome P450 2C9): 3.16 µM (inconclusive)

SMILES: COC(=O)c1[nH]c2cc(OC)ccc2c1NC(=O)c1nonc1C
- AC50 (Cytochrome P450 1A2): 0.794 µM (inconclusive)
- AC50 (Cytochrome P450 3A4): 7.08 µM (inconclusive)
- AC50 (Cytochrome P450 2C9): 1.26 µM (inconclusive)

SMILES: COc1ccc(C(=O)N/N=C2/C(=O)c3c(C)cc(C)cc3CC2(C)C)cc1
- AC50 (Cytochrome P450 1A2): 5.01 µM (inconclusive)
- AC50 (Cytochrome P450 2C9): 6.31 µM (inconclusive)

SMILES: O=C1N(c2ccccc2C(F)(F)F)O[C@@]1(c1ccccc1)C1CCCC1
- CC50 (Vero): 21.6 µM (active)

SMILES: Cc1cccc(C)c1NC(=O)CSc1nc(C)c(CC(=O)c2ccc(Br)cc2)c(C)c1C#N
- AC50 (Cytochrome P450 2C19): 35.5 µM (inconclusive)
- AC50 (Cytochrome P450 2C9): 1.12 µM (inconclusive)

SMILES: O=C(O)/C=C\c1ccc(O)c(O)c1
- AC50 (Cytochrome P450 2C9): 15.8 µM (inconclusive)

SMILES: CCOC(=O)c1cnc(-n2nc(C)cc2C)nc1NCCO
- AC50 (Cytochrome P450 1A2): 14.1 µM (inconclusive)
- AC50 (Cytochrome P450 3A4): 25.1 µM (inconclusive)
- AC50 (Cytochrome P450 2C9): 20 µM (inconclusive)

SMILES: CN(C(=O)c1ccc(OC2CCN(CCc3ccccc3)CC2)cc1)C1CCCCC1
- EC50 (H4): > 120 µM (not active)
- EC50 [5]: 18.5 µM (active)
- EC50 [6]: 13.3 µM (active)
